Each structure is given as a SMILES string.

The results in this text go back to US6815439B2, “Substituted aza-oxindole derivatives” (SmithKline Beecham Corporation, priority 1999, dated 2004).

Common to all, as to format: biochemical
One experiment concerns the target CDK2 (Homo sapiens, UniProt P24941). As to the kind of experiment: CDK2 substrate phosphorylation assay. Conditions: kinase inhibition, Table 3. The procedure:
Cyclin dependent protein kinase assays utilized the peptides Biotin-aminohexyl-[…] and Biotin-aminohexyl-[…]-NH2 as phosphoryl group acceptors. CDK2 was expressed utilizing a baculovirus expression system and was partially purified to comprise 20-80% of total protein, with no detectable competing reactions present. Typically, assays were performed by incubating enzyme (0.2-10 nM), with and without inhibitor, one of the two peptide substrates ([…]), [γ-^32P]ATP ([…]), and 10-20 mM Mg^2+ for periods of time generally within the range 10-120 min. Reactions were terminated with 0.2-2 volumes of either 20% acetic acid or 50-100 mM EDTA buffered to pH 7 (substrate consumption <20%). The buffer employed in enzyme assays was either 30 mM HEPES 7.4 containing 0.15 M NaCl and 5% DMSO, the buffer 50 mM MOPS 7.0 containing 0.15 M NaCl and 5% DMSO, or the buffer 100 mM HEPES pH 7.5 containing 0.1 mg/mL BSA and 5% DMSO. Inhibitors were diluted in 100% DMSO prior to addition into the assay. Detection of peptide phosphorylation was accomplished by scintillation counting following either collection of peptide onto phosphocellulose filters (for reactions stopped with acetic acid), collection of peptide in wells of 96 well plates coated with Streptavidin (Pierce) (reactions were stopped with EDTA), or addition of Avidin coated Scintillant impregnated beads (Scintillation Proximity Assays from Amersham; reactions were stopped with EDTA).

The next experiment addresses T1, VEGFR-2 (Homo sapiens, UniProt P35968).
T1 construct: The kinase domain of the enzyme was purified to homogeneity from a baculovirus expression system; made in house
As to the kind of experiment: VEGFR-2 kinase assay. Conditions: kinase inhibition, Table 3; read-out: VEGFR2 (IC50). The procedure: The peptide substrate used in the VEGFR-2 assay was biotin-aminohexyl-[…]-NH2. The kinase domain of the enzyme was purified to homogeneity from a baculovirus expression system. The enzyme was preactivated on ice for 15 min in the presence of 100 μM ATP and 20 mM MgCl2, and stored at −80° C. until needed for assay. The activated enzyme was diluted to 0.4 nM into a 60 μl reaction containing 100 mM HEPES, pH 7.5, 5 μM ATP, 10 mM MgCl2, 5 μM peptide, 0.1 mM DTT, 0.05 mg/ml BSA, and an inhibitor at varying concentrations. The controls were reactions in the presence (negative controls) or absence (positive controls) of 50 mM EDTA. Reactions were incubated for 30 min at room temperature, and then quenched by the addition of EDTA to 60 mM in 210 μl. The quenched samples (190 μl) were transferred to a neutravidin-coated plate (Pierce) and incubated at room temperature for 40 min to allow biotinylated peptide to bind to the neutravidin. The unbound components of the reaction were removed by washing with a plate washer, then 200 μl HRP-PY20 anti-phosphotyrosine antibody conjugate was added to each well. After incubation for 40 min, the plate was washed to remove any unbound anitbody. A HRP substrate, K-blue (Neogen) was added and the reaction was quenched with Red Stop (Neogen) after 20 min. The absorbance of the wells was read at A650 in a plate reader. IC50 values were obtained by fitting raw data to A650=VMAX*(1−[I]/IC50+[I])))+b, where b is background.

For the next experiment, the target named is T2, c-fms (Homo sapiens, UniProt P07333).
T2 construct: The c-fms intracellular domain was expressed from a baculovirus expression system; GST (N); made in house
T2 sequence (P07333 539-972 limits assumed): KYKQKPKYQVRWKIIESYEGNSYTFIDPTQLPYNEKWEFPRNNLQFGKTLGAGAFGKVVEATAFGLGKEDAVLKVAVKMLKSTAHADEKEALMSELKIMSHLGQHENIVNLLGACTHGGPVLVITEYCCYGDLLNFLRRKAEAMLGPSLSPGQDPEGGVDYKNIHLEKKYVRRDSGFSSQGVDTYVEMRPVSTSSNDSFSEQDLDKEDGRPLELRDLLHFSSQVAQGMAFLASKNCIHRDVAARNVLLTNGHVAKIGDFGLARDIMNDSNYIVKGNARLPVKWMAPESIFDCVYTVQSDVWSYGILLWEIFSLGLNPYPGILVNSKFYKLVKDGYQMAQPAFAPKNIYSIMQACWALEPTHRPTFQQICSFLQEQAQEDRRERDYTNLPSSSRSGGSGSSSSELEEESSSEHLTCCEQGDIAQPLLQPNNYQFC
Put plainly: c-fms protein kinase assay. Conditions: kinase inhibition, Table 3. As to the method:
c-fms protein kinase assays utilized the peptide substrate, biotin-[…]-NH2 as the phosphoryl group acceptor. The c-fms intracellular domain was expressed from a baculovirus expression system, as an amino-terminal GST fusion protein, and purified to homogeneity using Glutathione agarose from Sigma Chemical Co. Maximum activation of the enzyme was achieved by preactivation at room temperature for 120 min in the presence of 100 μM ATP and 15 mM MgCl2, This enzyme stock was diluted to 150 nM prior to using in the assay. Typically assays were performed in white, opaque, 96-well plates in a 45 ul assay volume including 15 ul 6% DMSO, with or without compounds, 15 ul of the preactivated, diluted enzyme, and 15 ul of a substrate mixture. Reactions contained 50 mM HEPES, pH 7.5, 1.7 μM ATP, 15 mM MgCl2, 3 μM peptide, 2.5 mM DTT, 50 mM NaCl and 0.15 uCi/assay [□□^32P]ATP. The controls were reactions in the presence (negative controls) or absence (positive controls) of 50 mM EDTA. Reactions were allowed to proceed for 90 min at room temperature. The reaction products were quantified using Scintillation Proximity technolgy. The reactions were quenched by the addition of 200 ul of a solution containing 0.3 mg streptavidin SPA beads from Amersham, 50 mM EDTA, 0.1% TX-100, 50 uM ATP, in PBS, pH7.2 (phosphate buffered solution). Plates were sealed and counted in a Packard Topcount scintillation counter. IC50 values were obtained by fitting raw data to the equation y=Vmax*(1−(x/(k+x))).

T1 sequence (P35968 834-1162 limits assumed, species assumed): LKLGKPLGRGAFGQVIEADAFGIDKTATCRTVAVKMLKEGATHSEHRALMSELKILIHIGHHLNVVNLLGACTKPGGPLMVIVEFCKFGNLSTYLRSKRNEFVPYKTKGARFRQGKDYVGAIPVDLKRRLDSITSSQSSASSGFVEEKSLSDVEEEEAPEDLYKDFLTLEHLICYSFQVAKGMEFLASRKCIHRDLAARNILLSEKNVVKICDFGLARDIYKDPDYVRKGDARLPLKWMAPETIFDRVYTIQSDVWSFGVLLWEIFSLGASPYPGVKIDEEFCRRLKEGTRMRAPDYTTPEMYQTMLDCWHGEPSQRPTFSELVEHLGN

A word on the IC50: it is the concentration that gives 50% inhibition. With `NS(=O)(=O)c1ccc(NC=C2C(=O)Nc3ccncc32)cc1` [Example 1, 4-{[(2-Oxo-1,2-dihydro-3H-pyrrolo[3,2-c]pyridin-3-ylidene)methyl]amino}benzenesulfonamide], the IC50 against CDK2 was in the range of 10 to 100 nM; on VEGFR-2, 1000 to 10000 nM.

As to `NS(=O)(=O)c1ccc(NC=C2C(=O)Nc3cnccc32)cc1` [Example 2, 4-{[(2-Oxo-1,2-dihydro-3H-pyrrolo[2,3-c]pyridin-3-ylidene)methyl]amino}benzenesulfonamide], the IC50 on CDK2 is 10 to 100 nM.

Regarding `O=C1Nc2cccnc2C1=CNc1ccc2cn[nH]c2c1` [Example 3, 3-[(1H-Indazol-6-ylamino)methylidene]-1H-pyrrolo[3,2-b]pyridin-2-one], the IC50 on VEGFR-2 is 1000 to 10000 nM.

In the case of `O=C1Nc2cccnc2C1=CNc1ccc2ncccc2c1` [Example 4, 3-[(6-Quinolinylamino)methylidene]-1,3-dihydro-2H-pyrrolo[3,2-b]pyridin-2-one], the half-inhibitory concentration (IC50) on VEGFR-2 fell in the range of 1000 to 10000 nM.

For the compound `NS(=O)(=O)c1ccc(NC=C2C(=O)Nc3ncccc32)cc1` [Example 5, 4-{[(2-Oxo-1,2-dihydro-3H-pyrrolo[2,3-b]pyridin-3-ylidene)methyl]amino}benzenesulfonamide], the IC50 at CDK2 lay in the range of 100 to 1000 nM; at VEGFR-2, 1000 to 10000 nM.

Consider `O=C1Nc2ncccc2C1=CNc1ccc2cn[nH]c2c1` [Example 6, 3-[(1H-Indazol-6-ylamino)methylidene]-1H-pyrrolo[2,3-b]pyridin-2-one], for which the IC50 against c-fms was in the range of 1000 to 10000 nM; on VEGFR-2, 100 to 1000 nM.

As for `O=C1Nc2ncccc2C1=CNc1ccc2ncccc2c1` [Example 7, 3-[(6-Quinolinylamino)methylidene]-1,3-dihydro-2H-pyrrolo[2,3-b]pyridin-2-one], the IC50 at VEGFR-2 was 1000 to 10000 nM.

For the compound `NS(=O)(=O)c1ccc(NC=C2C(=O)Nc3ncc(-c4ccccc4)cc32)cc1` [Example 8, 4-{[(2-Oxo-5-phenyl-1,2-dihydro-3H-pyrrolo[2,3-b]pyridin-3-ylidene)methyl]amino}benzenesulfonamide], the IC50 against CDK2 was in the range of 1000 to 10000 nM.

`O=C1Nc2ncc(-c3ccccc3)cc2C1=CNc1ccc2cn[nH]c2c1` [Example 9, 3-[(1H-Indazol-6-ylamino)methylidene]-5-phenyl-1H-pyrrolo[2,3-b]pyridin-2-one] displayed an IC50 against c-fms of 1000 to 10000 nM.

Turning to `O=C1Nc2ncc(-c3ccccc3)cc2C1=CNc1ccc2ncccc2c1` [Example 10, 5-Phenyl-3-[(6-quinolinylamino)methylidene]-1,3-dihydro-2H-pyrrolo[2,3-b]pyridin-2-one], the IC50 against c-fms was in the range of 1000 to 10000 nM.

Turning to `O=C1Nc2ncc(-c3ccco3)cc2C1=CNc1ccc2ncccc2c1` [Example 13, 5-(2-Furyl)-3-[(6-quinolinylamino)methylidene]-1,3-dihydro-2H-pyrrolo[2,3-b]pyridin-2-one], the IC50 at c-fms and on VEGFR-2 was 1000 to 10000 nM in each case.

As to `O=C1Nc2ncc(-c3ccsc3)cc2C1=CNc1ccc2ncccc2c1` [Example 16, 3-[(6-Quinolinylamino)methylidene]-5-(3-thienyl)-1,3-dihydro-2H-pyrrolo[2,3-b]pyridin-2-one], the results for the IC50 against c-fms and at VEGFR-2 were 100 to 1000 nM and 1000 to 10000 nM, respectively.

For the compound `NS(=O)(=O)c1ccc(NC=C2C(=O)Nc3nc(Cl)ccc32)cc1` [Example 20, 4-{[(6-Chloro-2-oxo-1,2-dihydro-3H-pyrrolo[2,3-b]pyridin-3-ylidene)methyl]amino}benzenesulfonamide], the IC50 against CDK2 and at VEGFR-2 was 100 to 1000 nM throughout.

For the compound `O=C1Nc2nc(Cl)ccc2C1=CNc1ccc2ncccc2c1` [Example 22, 6-Chloro-3-[(6-quinolinylamino)methylidene]-1,3-dihydro-2H-pyrrolo[2,3-b]pyridin-2-one], the IC50 on c-fms and at VEGFR-2 was 1000 to 10000 nM in each case.

Turning to `CCOC(=O)c1cnc2c(c1)C(=CNc1ccc3ncccc3c1)C(=O)N2` [Example 25, Ethyl 2-oxo-3-[(6-quinolinylamino)methylidene]-2,3-dihydro-1H-pyrrolo[2,3-b]pyridine-5-carboxylate], the IC50 on CDK2 and on VEGFR-2 was 100 to 1000 nM each time.
